Source: patent US6605305B2, “Plant drug for treatment of liver disease” (priority 2001, dated 2003)
Marks after values point to notes of the source that are not given here.

Columns and labels:
[1] = test system: Aflatoxin B1 induced liver cancer; design: species or system rats; conditions: rat, in vivo
[2] = test system: Cytochrome P-450; conditions: rat, in vivo
[3] = test system: rats; assay: Subacute toxicity, 30 days; assay type: in vivo
[4] = test system: S-180; assay: DNA synthesis of cancer cells ([^3H]TdR incorporation), S-180; assay type: in vivo, rats
Procedure: (§1) The method of animal and liver was described previously. Ascitric hepatoma, S180-ν, the transplantable 3924 used. After treatment with SCS (100 mg/kg), rats were injected with [^3H]-TdR (10 μc/μmole). Two hours after injection the animals were decapitated and examined. Livers and tumors were rapidly removed and blotted on filter paper. Tumors were carefully dissected free of necrotic, hemorrhagic, and nontumorous material. Tissues were minced with sharp scissors and 2 gm. DNA was prepared from the tissues. The radioactivity of the DNA was determined by liquid scintillation counting.
(§2) The incorporation of thymidine into DNA ws expressed as cpm/mg of DNA or cpm/gm of tissue.

[5] = test system: Benzpyrene hydroxylase; assay: Hepatic microsomal monooxygenases: benzpyrene hydroxylase; assay type: in vivo; conditions: rat liver microsomes, treatment group
[6] = test system: Lipoperoxides; assay: Liver lipoperoxides (MDA) after CCl4; assay type: in vivo, mice
Procedure: Female Balb/c mice (22-24 g) were maintained at 20° C. and a 12 hours light/dark cycle. The food and water allowed adliboti. Mice were randomly assigned to groups of 20 individuals. Twenty-four hours after the last dosing, animals were administered an oral dose of CCl4 (1%, v/v, in olive oil) at 1.0 mmol/kg. In treatment group, mice were treated intragastrically with SCS at daily dose of 50 mg/kg for 4 days. Control animals were given the vehicle (i.e. olive oil, 1 mL/kg). […]
The experiments were performed as previously described.
In the present study, the effect of SCS on lipoperoxides was examined.

[7] = test system: 3924A; assay: DNA synthesis of cancer cells ([^3H]TdR incorporation), 3924A; assay type: in vivo, rats
Procedure: as §1, §2

[8] = test system: mitochondrion oxygen consumption; assay: Mitochondrion oxygen consumption (respiratory control ratio) with TET; assay type: biochemical; conditions: TET 5 μl/L + SCS (100 μmol/L)
Procedure: In present study, the effect of SCS on ATP and oxygen consumption was examined. The experiments of animal and livers were performed as previously described.

[9] = test system: YAC-1; assay: NK cell activity of mice (^51Cr release), YAC-1 target cells; assay type: in vivo; conditions: oral dose of 100 mg/kg
[10] = test system: ethanol-induced gastric mucosal damage; assay: Ethanol-induced gastric mucosal damage; assay type: in vivo, rats
Procedure: The experiment of animal was performed as previously described. Mucosal damage in gastrointestinal tract was induced ethanol or indomethacin administration. In ethanol-treated animals, after 24 hours of fasting, ethanol was given orally (70%, v/v, 10 ml/kg) by means of an oral gastric. Mucosal damage was assessed by measurement of areas with hemorrhagic lesion. In the indomethacin ulcer model, rats were refed for 1 hour after 24 hours of fasting. Thirty minutes later, indomethacin (15 mg/kg) was administered subcutaneously and rats were killed 24 hours later. Mucosal lesions were again measured along the greatest diameter. […] SCS administration was repeated again 6 hours after indomethacin injection.

[11] = test system: GRD; assay: Hepatic GRD activity in CCl4-treated mice; assay type: in vivo
Procedure: Female Balb/c mice (22-24 g) were maintained at 20° C. and a 12 hours light/dark cycle. The food and water allowed adliboti. Mice were randomly assigned to groups of 20 individuals. Twenty-four hours after the last dosing, animals were administered an oral dose of CCl4 (1%, v/v, in olive oil) at 1.0 mmol/kg. In treatment group, mice were treated intragastrically with SCS at daily dose of 50 mg/kg for 4 days. Control animals were given the vehicle (i.e. olive oil, 1 mL/kg). Twenty-four hours after intoxication, heparinized blood samples were drawn from ether-anesthetized mice by cardiac puncture, and the animals were killed by cardiac excision thereafter.
The rats were starved overnight before decapitation. The livers were perfused in situ with ice-cold 1.15% KCl solution. Tissue homogenate was prepared by homogenizing 1 g of hepatic tissue sample in 10 mL ice-cold homogenizing buffer with two 10-secbursts of atissue disintegrator at 135,000 rpm. Hepatic mitochondrial fraction was prepared by differential centrifugation in isotonic buffer ([…], 0.1 mM EDTA, 5 mM Tris, pH 7.4).
The experiments of animal and livers were performed as previously described. Glutathione (GSH) level was determined by an HPLC method. In the present study, the effect of SCS on GHS and GRD were examined.

[12] = test system: Aminopyrine demethylase; assay: Hepatic microsomal monooxygenases: aminopyrine demethylase; assay type: in vivo; conditions: rat liver microsomes, treatment group
[13] = intragastric route, 500 mg/kg daily, 30 consecutive days
[14] = rats, 500 mg/kg daily injected, 30 days

Compound: COc1cc2c(c(OC)c1OC)-c1c(cc(OC)c(OC)c1OC)C[C@](C)(O)[C@@H](C)C2 [SCS, Schisandrin]
- Inhibition % [1]: 87.8%
- Cytochrome P-450 [2]: 2.80 ± 0.30 nmol/mg protein
- Behavior of the animal [3, 13]: remained normal
- Liver and kidney function, histological picture of important organs [3, 13]: no abnormalities
- Consumption of water, food and body weights versus control [3, 14]: did not show any differences
- Depressive, excitatory or sleepiness symptoms [3, 14]: no depressive, excitatory or sleepiness symptoms
- Microscopic inspection of stomach, liver, spleen and kidneys and their relative weights [3, 14]: no alteration
- Tissue inhibition rate (%) ([4]; S-180 T versus C): 43.2%
- [^3H]TdR into DNA × 10^−3 cm/mg ([4]; S-180 T, SCS 100 mg/kg): 39.8 ± 5.2 × 10^−3 cm/mg
- Benzpyrene hydroxylase [5]: 51.8 ± 6.5 nmol/mg protein
- Lipoperoxides (mmol MDA/g liver protein) ([6]; 1 h): 0.70 ± 0.07 mmol MDA/g liver protein
- Lipoperoxides T/C ([6]; 1 h): 87%
- Lipoperoxides (mmol MDA/g liver protein) ([6]; 3 h): 0.65 ± 0.069 mmol MDA/g liver protein
- Lipoperoxides T/C ([6]; 3 h): 72%
- Lipoperoxides (mmol MDA/g liver protein) ([6]; 6 h): 0.60 ± 0.70 mmol MDA/g liver protein
- Lipoperoxides T/C ([6]; 6 h): 55%
- Lipoperoxides (mmol MDA/g liver protein) ([6]; 12 h): 0.52 ± 0.60 mmol MDA/g liver protein
- Lipoperoxides T/C ([6]; 12 h): 40%
- Lipoperoxides (mmol MDA/g liver protein) ([6]; 24 h): 0.50 ± 0.58 mmol MDA/g liver protein
- Lipoperoxides T/C ([6]; 24 h): 22%
- Tissue inhibition rate (%) ([7]; 3924A t versus C): 52.6%
- [^3H]TdR into DNA × 10^−3 cm/mg ([7]; 3924A t, SCS 100 mg/kg): 38.7 ± 4.8 × 10^−3 cm/mg
- RCR (respiratory control ratio) [8]: 12.5 ± 1.10
- % Specific lysis (mean ± SEM) YAC-1 ([9]; effector/target 50:1): 45.0 ± 3.6 %
- % Specific lysis (mean ± SEM) YAC-1 ([9]; effector/target 100:1): 64.0 ± 7.1%
- Lesion area (mm^2) gastric antrum ([10]; SCS 10 mg/kg): 2.5 ± 0.35* mm^2
- Lesion area (mm^2) gastric antrum ([10]; SCS 25 mg/kg): 2.0 ± 0.23** mm^2
- Lesion area (mm^2) gastric antrum ([10]; SCS 50 mg/kg): 1.7 ± 0.20** mm^2
- GRD ([11]; CCl4 + SCS): 50.6 ± 6.0 mU/mg protein
- GRD activity T/C ([11]; treatment versus CCl4 control): 347%
- GRD activity T/N ([11]; treatment versus normal group): 145%
- Aminopyrine demethylase [12]: 180.0 ± 20 nmol HCHO/mg protein
